Measurements taken from publication PMC11347161, “Sequence diversity of apidaecin-like peptides arresting the terminating ribosome” (Nucleic Acids Research, 2024).
≈ marks a conversion by molar mass, not a printed value. Residues, ends and D or L forms follow the SMILES beside them. *: point of attachment. Orn(α-tetramethylguanidino) = CN(C)C(=N[C@@H](CCCN)C(=O)*)N(C)C

Tested on: E. coli, BL21 cells
Format: cell-based
Conditions: E. coli BL21, broth microdilution, conducted in triplicate; for MIC, TSB: 33% TSB medium; for MIC, LB: LB medium; for MIC, RPMI/Serum: RPMI/Serum medium (RPMI-1640:MHB:FBS = 100:5:20)
Experimental: The E. coli strain CA244 (lacZ125(Am), e14-, trpA49(Am), relA1, spoT1) was obtained from Escherichia coli Genetic Stock Center. The E. coli BL21(DE3) electrocompetent cells were from Sigma. The following media and components were implemented for bacteria growth: lysogeny broth (LB), minimal M9 medium, Tryptic Soy Broth (TSB), Roswell Park Memorial Institute medium 1640 (RPMI-1640), Mueller Hinton Broth (MHB), Fetal Bovine Serum (FBS). For various experiments E. coli cells were grown either in LB, in 33% TSB ([21]), in M9 medium supplemented with 1% Glycerol, 1 mM MgSO4, 0.1 mM CaCl2 and 10 μg/ml thiamine, or in RPMI/Serum (RPMI-1640:MHB:FBS = 100:5:20) ([23]).
The minimal inhibitory concentration (MIC) test was performed using the broth microdilution method, adapted from the previously described procedure ([28]). The MIC tests were conducted in triplicate either in LB, 33% TSB or RPMI/Serum media.
In order to quantitatively assess the antimicrobial activity of the synthesized peptides identified by both, the negative and positive selection strategies, we determined their minimal inhibitory concentrations (MICs) for the E. coli BL21 cells in three different media: LB, as a standard laboratory medium, 33% TSB, as a medium in which PrAMPs show increased antibacterial properties ([21]), and in the more therapeutically relevant RPMI/serum media ([23]) (Table 1). […] It appears, therefore, that the positive selection strategy is more prone to identifying biologically active peptides in comparison with the negative selection approaches. Furthermore, it became apparent that some multiple substitutions can even improve the antibacterial properties of the Api-like peptides.

SMILES	MIC, TSB [µM]	MIC, LB [µM]	MIC, RPMI/Serum [µM]
CC[C@H](C)[C@H](NC(=O)[C@H](Cc1ccc(O)cc1)NC(=O)[C@@H](NC(=O)[C@@H]1CCCN1C(=O)[C@H](CCCNC(=N)N)NC(=O)[C@H](CC(N)=O)NC(=O)[C@H](CC(N)=O)NC(=O)[C@H](CCCN)N=C(N(C)C)N(C)C)C(C)C)C(=O)N1CCC[C@H]1C(=O)N[C@@H](CCCNC(=N)N)C(=O)N1CCC[C@H]1C(=O)N[C@@H](CCCNC(=N)N)C(=O)N1CCC[C@H]1C(=O)N1CCC[C@H]1C(=O)N[C@@H](Cc1c[nH]cn1)C(=O)N1CCC[C@H]1C(=O)N[C@@H](CCCNC(=N)N)C(=O)N[C@@H](CC(C)C)C(=O)O [Api 137, reference compound] ({Orn(α-tetramethylguanidino)}-NNRPVYIPRPRPPHPRL-OH; N-terminus and C-terminus assumed)	0.25 (≈ 0.573 µg/mL)	4 (≈ 9.17 µg/mL)	0.0625 (≈ 0.143 µg/mL)
CC(C)C[C@H](NC(=O)[C@H](CCCNC(=N)N)NC(=O)[C@@H]1CCCN1C(=O)[C@H](Cc1c[nH]cn1)NC(=O)[C@H](Cc1ccc(O)cc1)NC(=O)[C@@H]1CCCN1C(=O)[C@H](CCCNC(=N)N)NC(=O)[C@@H]1CCCN1C(=O)[C@@H](NC(=O)[C@H](CS)NC(=O)[C@H](Cc1c[nH]c2ccccc12)NC(=O)[C@H](CCC(N)=O)NC(=O)[C@@H](NC(=O)[C@H](CCCCN)NC(=O)[C@H](CCCNC(=N)N)NC(=O)[C@H](CC(N)=O)NC(=O)[C@H](CC(N)=O)NC(=O)[C@H](CCCN)N=C(N(C)C)N(C)C)C(C)C)C(C)C)C(=O)O [K5Q7W8C9V10Y14] ({Orn(α-tetramethylguanidino)}-NNRKVQWCVPRPYHPRL-OH; C-terminus assumed)	>64	>64	>64
CC(C)C[C@H](NC(=O)[C@@H]1CCCN1C(=O)[C@H](CCC(N)=O)NC(=O)[C@@H]1CCCN1C(=O)[C@H](CC(C)C)NC(=O)[C@H](Cc1ccc(O)cc1)NC(=O)[C@@H](NC(=O)[C@@H]1CCCN1C(=O)[C@H](CCCNC(=N)N)NC(=O)[C@H](CC(N)=O)NC(=O)[C@H](CC(N)=O)NC(=O)[C@H](CCCN)N=C(N(C)C)N(C)C)C(C)C)C(=O)NCC(=O)N1CCC[C@H]1C(=O)NCC(=O)N1CCC[C@H]1C(=O)N[C@@H](CCCNC(=N)N)C(=O)N[C@@H](C)C(=O)O [L8L12G13G15A18] ({Orn(α-tetramethylguanidino)}-NNRPVYLPQPLGPGPRA-OH; C-terminus assumed)	>64	>64	>64
CSCC[C@H](NC(=O)[C@H](CCCNC(=N)N)NC(=O)[C@@H]1CCCN1C(=O)[C@H](Cc1ccc(O)cc1)NC(=O)[C@@H]1CCCN1C(=O)[C@H](Cc1ccccc1)NC(=O)[C@H](Cc1ccc(O)cc1)NC(=O)[C@@H](NC(=O)[C@@H]1CCCN1C(=O)[C@H](CCCNC(=N)N)NC(=O)[C@H](C)NC(=O)[C@H](CC(N)=O)NC(=O)[C@H](CCCN)N=C(N(C)C)N(C)C)C(C)C)C(=O)N1CCC[C@H]1C(=O)N[C@@H](Cc1c[nH]cn1)C(=O)N1CCC[C@H]1C(=O)N[C@@H](CCCNC(=N)N)C(=O)N[C@@H](CC(C)C)C(=O)O [Peptide A3F8Y10M13] ({Orn(α-tetramethylguanidino)}-NARPVYFPYPRMPHPRL-OH; C-terminus assumed)	16 (≈ 37.2 µg/mL)	>64	8 (≈ 18.6 µg/mL)
CC[C@H](C)[C@H](NC(=O)[C@H](Cc1ccc(O)cc1)NC(=O)[C@@H](NC(=O)[C@@H]1CCCN1C(=O)[C@H](CCCNC(=N)N)NC(=O)[C@H](CC(N)=O)NC(=O)[C@H](CC(N)=O)NC(=O)[C@H](CCCN)N=C(N(C)C)N(C)C)C(C)C)C(=O)NCC(=O)N[C@@H](CCC(=O)O)C(=O)N1CCC[C@H]1C(=O)N[C@@H](CCCNC(=N)N)C(=O)N1CCC[C@H]1C(=O)N1CCC[C@H]1C(=O)N[C@@H](CC(N)=O)C(=O)N1CCC[C@H]1C(=O)N[C@@H](CCCNC(=N)N)C(=O)N[C@@H](CC(C)C)C(=O)O [Peptide G9E10N15] ({Orn(α-tetramethylguanidino)}-NNRPVYIGEPRPPNPRL-OH; C-terminus assumed)	>64	>64	>64
